In PubChem BioAssay (NCI):
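Where inhibition never reached the appropriate level, the endpoint shown equals the highest concentration tested. Otherwise, values were interpolated linearly from a five-concentration, 48-hour dose response in 96-well plates. At the GI50, growth is halved. At the TGI there is no net growth.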

Key:
Assay in all cases: NCI-60 cell line screen, 48 h
[1] = system: OVCAR-4 ovarian
[2] = system: NCI-H226 lung
[3] = system: 786-0 renal
[4] = system: T-47D breast
[5] = system: M14 melanoma
[6] = system: TK-10 renal
[7] = system: ACHN renal
[8] = system: RPMI-8226 leukemia
[9] = system: SF-268 CNS
[10] = system: HS 578T breast
[11] = system: SK-MEL-5 melanoma
[12] = system: MALME-3M melanoma
[13] = system: HOP-62 NSCLC
[14] = system: LOX IMVI melanoma
[15] = system: COLO 205 colon
[16] = system: SK-MEL-2 melanoma
[17] = system: CAKI-1 renal
[18] = system: CCRF-CEM leukemia
[19] = system: UACC-62 melanoma
[20] = system: SK-OV-3 ovarian
[21] = system: HCT-116 colon
[22] = system: A549 NSCLC
[23] = system: OVCAR-8 ovarian
[24] = system: SF-295 CNS
[25] = system: SR leukemia
[26] = system: EKVX NSCLC
[27] = system: OVCAR-5 ovarian
[28] = system: DU-145 prostate
[29] = system: NCI-H522 lung
[30] = system: HCT-15 colon
[31] = system: SNB-19 CNS
[32] = system: HOP-92 NSCLC
[33] = system: IGROV1 ovarian
[34] = system: NCI/ADR-RES ovarian
[35] = system: HL-60(TB) leukemia
[36] = system: NCI-H23 lung
[37] = system: MCF7 breast
[38] = system: HCC-2998 colon
[39] = system: MOLT-4 leukemia
[40] = system: UO-31 renal
[41] = system: BT-549 breast
[42] = system: UACC-257 melanoma
[43] = system: KM12 colon
[44] = system: SW-620 colon
[45] = system: SF-539 CNS
[46] = system: OVCAR-3 ovarian
[47] = system: K-562 leukemia
[48] = system: RXF 393 renal
[49] = system: A498 renal
[50] = system: MDA-MB-231 breast
[51] = system: NCI-H460 lung
[52] = system: U251 CNS
[53] = system: SK-MEL-28 melanoma
[54] = system: HT29 colon
[55] = system: MDA-MB-435
[56] = system: SNB-75 CNS
[57] = system: SN12C renal
[58] = system: PC-3 prostate

Compound `N#Cc1c(-c2ccccc2)cc(-c2ccccc2)n(CCCC(=O)NO)c1=O` has a GI50 [1] of 1920 nM, a TGI [1] of 11800 nM and a GI50 [2] of 2240 nM. For the same compound, the TGI [2] was 7410 nM, the GI50 [3] was 1600 nM and the TGI [3] was 5850 nM. For the same compound, the GI50 [4] was 1830 nM, the TGI [4] was 8340 nM and the GI50 [5] was 898 nM. It also gave a TGI [5] of 10100 nM, a GI50 [6] of 1000 nM and a TGI [6] of 11100 nM. For the same compound, the GI50 [7] was 494 nM, the TGI [7] was 3590 nM and the GI50 [8] was 1140 nM. For the same compound, the TGI [8] was 3800 nM, the GI50 [9] was 2310 nM and the TGI [9] was 6720 nM. For the same compound, the GI50 [10] was 1810 nM, the TGI [10] was 8500 nM and the GI50 [11] was 1890 nM. For the same compound, the TGI [11] was 4740 nM, the GI50 [12] was 704 nM and the TGI [12] was 11500 nM. The GI50 [13] was 2000 nM, the TGI [13] was 6980 nM and the GI50 [14] was 1630 nM. The TGI [14] was 3410 nM, the GI50 [15] was 1970 nM and the TGI [15] was 4970 nM. For the same compound, the GI50 [16] was 2020 nM, the TGI [16] was 10000 nM and the GI50 [17] was 473 nM. The TGI [17] was 2650 nM, the GI50 [18] was 847 nM and the TGI [18] was 7150 nM. For the same compound, the GI50 [19] was 1820 nM, the TGI [19] was 5630 nM and the GI50 [20] was 1980 nM. For the same compound, the TGI [20] was 5230 nM, the GI50 [21] was 1670 nM and the TGI [21] was 6700 nM. It also gave a GI50 [22] of 2200 nM, a TGI [22] of 7950 nM and a GI50 [23] of 1140 nM. For the same compound, the TGI [23] was 8670 nM, the GI50 [24] was 2150 nM and the TGI [24] was 5020 nM. It also gave a GI50 [25] of 361 nM, a TGI [25] of 3650 nM and a GI50 [26] of 1800 nM. It also gave a TGI [26] of 7810 nM, a GI50 [27] of 2300 nM and a TGI [27] of 8430 nM. For the same compound, the GI50 [28] was 2660 nM, the TGI [28] was 10500 nM and the GI50 [29] was 1330 nM. For the same compound, the TGI [29] was 5890 nM, the GI50 [30] was 434 nM and the TGI [30] was 10700 nM. It also gave a GI50 [31] of 2700 nM, a TGI [31] of 13000 nM and a GI50 [32] of 1970 nM. For the same compound, the TGI [32] was 7530 nM, the GI50 [33] was 1690 nM and the TGI [33] was 4770 nM. For the same compound, the GI50 [34] was 541 nM, the TGI [34] was 3720 nM and the GI50 [35] was 1810 nM. The TGI [35] was 5430 nM, the GI50 [36] was 2770 nM and the TGI [36] was 9940 nM. The GI50 [37] was 1700 nM, the TGI [37] was 10600 nM and the GI50 [38] was 2170 nM. For the same compound, the TGI [38] was 8660 nM, the GI50 [39] was 1220 nM and the TGI [39] was 5980 nM. The GI50 [40] was 392 nM, the TGI [40] was 2300 nM and the GI50 [41] was 2770 nM. The TGI [41] was 14100 nM, the GI50 [42] was 1730 nM and the TGI [42] was 7380 nM. The GI50 [43] was 1100 nM, the TGI [43] was 11800 nM and the GI50 [44] was 1930 nM. The TGI [44] was 12600 nM, the GI50 [45] was 1680 nM and the TGI [45] was 5030 nM. It also gave a GI50 [46] of 1610 nM, a TGI [46] of 4600 nM and a GI50 [47] of 729 nM. The TGI [47] was 12900 nM, the GI50 [48] was 939 nM and the TGI [48] was 2740 nM. It also gave a GI50 [49] of 788 nM, a TGI [49] of 2950 nM and a GI50 [50] of 2900 nM. For the same compound, the TGI [50] was 10400 nM, the GI50 [51] was 1720 nM and the TGI [51] was 8780 nM. The GI50 [52] was 1690 nM, the TGI [52] was 4620 nM and the GI50 [53] was 2880 nM. The TGI [53] was 12700 nM, the GI50 [54] was 2580 nM and the TGI [54] was 8580 nM. The GI50 [55] was 324 nM, the TGI [55] was 10700 nM and the GI50 [56] was 1240 nM. The TGI [56] was 4850 nM, the GI50 [57] was 2340 nM and the TGI [57] was 10300 nM. The GI50 [58] was 2130 nM and the TGI [58] was 14400 nM.
